# Results taken from patent US20100119483A1, “PEPTIDE VIRAL ENTRY INHIBITORS” (Schering Corporation, priority 2004, published 2010).
# Several values for one entry are separate records, joined by “and”; a condition that tells them apart may be missing. Equal values may be shown once. Ends that are not written are not given here.
# Experiments:
# [1] = test system: HCV pseudoparticles; assay: HCV pseudoparticle (HCVpp) entry assay in Huh7 hepatoma cells, luciferase readout; assay type: cell-based, hepatitis C virus; conditions: for luciferase units, HCV entry: duplicates; for % of control at ~30 uM: percentage of hepatitis C virus cellular entry at 30 μM peptide vs uninhibited control; for HCVpp % inh: peptide library screen, first screened at 100 ug/ml, cell entry inhibition vs uninhibited control
# Summary of the method: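 Huh7 cells were pre-treated with peptide for 1 h at 37 °C before exposure to HCV E1/E2-pseudotyped HIV luciferase particles made in 293T cells, followed by 72 h culture and luciferase readout. Peptides were tested at 10 points, 3-fold, from 100 ug/ml; particles lacking envelope served as non-specific entry control.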
# [2] = test system: amphotropic murine leukemia virus; assay: AMLV pseudotyped virus entry counter-screen, same infection protocol; assay type: cell-based; conditions: for luciferase units, AMLV entry: duplicates; for AMLVpp % inh: peptide library screen, cell entry inhibition vs uninhibited control
# Summary of the method: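 Huh7 hepatoma cells pre-incubated with peptide 1 h at 37 °C, then infected with AMLV pseudotyped virus and cultured 72 h at 37 °C, 5% CO2 before luciferase read-out. Peptides screened at 100 ug/ml, then 10-point 3-fold titrations from 100 ug/ml.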
# [3] = 0.1 nM of peptide (printed for three rows), two values per peptide and row
# [4] = 0.3 nM of peptide, two values per peptide
# [5] = 1 nM of peptide, two values per peptide
# [6] = 3 nM of peptide, two values per peptide
# [7] = 10 nM of peptide, two values per peptide
# [8] = 0.01371742 uM of peptide (three lines)
# [9] = 30 nM of peptide, two values per peptide
# [10] = 100 nM of peptide, two values per peptide
# [11] = 300 nM of peptide, two values per peptide
substance,measurement,setting,value
A-I-K-W-E-Y-V-L-L-L-F-L-L [SEQ ID NO: 100],"% control (HCVpp entry), lysine scanning",[1]; [3],110 % control and 85 % control and 115 % control and 83 % control and 92 % control and 111 % control
same,"% control (HCVpp entry), lysine scanning",[1]; [4],88 % control and 75 % control
same,"% control (HCVpp entry), lysine scanning",[1]; [5],76 % control and 68 % control
same,"% control (HCVpp entry), lysine scanning",[1]; [6],61 % control and 83 % control
same,"% control (HCVpp entry), lysine scanning",[1]; [7],62 % control and 58 % control
same,"luciferase units, HCV entry",[1]; [8],9526 luciferase units and 11368 luciferase units and 13637 luciferase units and 13231 luciferase units and 14358 luciferase units and 15831 luciferase units
same,"% control (HCVpp entry), lysine scanning",[1]; [9],53 % control and 44 % control
same,"luciferase units, HCV entry",[1]; 0.04115226 uM of peptide,7066 luciferase units and 7585 luciferase units
same,"% control (HCVpp entry), lysine scanning",[1]; [10],31 % control and 19 % control
same,"luciferase units, HCV entry",[1]; 0.1234568 uM of peptide,4241 luciferase units and 3590 luciferase units
same,"% control (HCVpp entry), lysine scanning",[1]; [11],32 % control and 29 % control
same,"luciferase units, HCV entry",[1]; 0.3703704 uM of peptide,4161 luciferase units and 2767 luciferase units
same,"luciferase units, HCV entry",[1]; 1.111111 uM of peptide,3041 luciferase units and 2870 luciferase units
same,"luciferase units, HCV entry",[1]; 3.333333 uM of peptide,4131 luciferase units and 3158 luciferase units
same,"luciferase units, HCV entry",[1]; 10 uM of peptide,1538 luciferase units and 1360 luciferase units
same,"luciferase units, HCV entry",[1]; 30 uM of peptide,1262 luciferase units and 1073 luciferase units
same,% of control at ~30 uM,[1],6%
same,"luciferase units, AMLV entry",[2]; 0.04115226 uM of peptide,39784 luciferase units and 45324 luciferase units
same,"luciferase units, AMLV entry",[2]; 0.1234568 uM of peptide,46954 luciferase units and 44234 luciferase units
same,"luciferase units, AMLV entry",[2]; 0.3703704 uM of peptide,42008 luciferase units and 39907 luciferase units
same,"luciferase units, AMLV entry",[2]; 1.111111 uM of peptide,45723 luciferase units and 43633 luciferase units
same,"luciferase units, AMLV entry",[2]; 3.333333 uM of peptide,70934 luciferase units and 59407 luciferase units
same,"luciferase units, AMLV entry",[2]; 10 uM of peptide,135633 luciferase units and 74847 luciferase units
same,"luciferase units, AMLV entry",[2]; 30 uM of peptide,76883 luciferase units and 56072 luciferase units
S-W-G-E-N-E-T-D-V-L-L-L-N-N-T-R [SEQ ID NO: 51],HCVpp % inh,[1],23%
same,AMLVpp % inh,[2],34%
W-G-V-L-A-G-L-A-Y-Y-S-M-V-G-N-W [SEQ ID NO: 26],HCVpp % inh,[1],50%
same,AMLVpp % inh,[2],27%
P-R-C-L-V-H-Y-P-Y-R-L-W-H-Y-P-C (PRCLVHYPYRLWHYPC; HCV peptide) [SEQ ID NO: 62],HCVpp % inh,[1],10%
same,AMLVpp % inh,[2],−42%
T-C-G-G-P-P-C-N-I-G-G-I-C-N-K-T [SEQ ID NO: 56],HCVpp % inh,[1],53%
same,AMLVpp % inh,[2],22%
N-R-T-A-L-N-C-N-D-S-L-N-T-G-F-L (NRTALNCNDSLNTGFL; not fully specified (C-terminus); printed as N-R-T-A-L-N-C-N-D-S-L-N-T-G-F-L) [SEQ ID NO: 36],HCVpp % inh,[1],23%
same,AMLVpp % inh,[2],18%
T-R-G-E-R-C-N-L-E-D-R-D-R-S-E-L [SEQ ID NO: 68],HCVpp % inh,[1],13%
same,AMLVpp % inh,[2],−7%
N-T-L-G-I-T-S-L-F-S-P-G-S-S-Q-K [SEQ ID NO: 32],HCVpp % inh,[1],11%
same,AMLVpp % inh,[2],2%
A-I-K-W-E-Y-V-L-L-L-F-L-L [SEQ ID NO: 85],"% control (HCVpp entry), alanine scanning",[1]; [3],79 % control and 81 % control and 101 % control and 74 % control and 113 % control and 112 % control
same,"% control (HCVpp entry), alanine scanning",[1]; [4],79 % control and 96 % control
same,"% control (HCVpp entry), alanine scanning",[1]; [5],95 % control and 83 % control
same,"% control (HCVpp entry), alanine scanning",[1]; [6],71 % control and 88 % control
same,"% control (HCVpp entry), alanine scanning",[1]; [7],90 % control and 107 % control
same,"% control (HCVpp entry), alanine scanning",[1]; [9],62 % control and 57 % control
same,"luciferase units, HCV entry",[1]; 0.04115226 uM of peptide,7203 luciferase units and 6444 luciferase units
same,"% control (HCVpp entry), alanine scanning",[1]; [10],45 % control and 50 % control
same,"% control (HCVpp entry), alanine scanning",[1]; [11],18 % control and 22 % control
same,"luciferase units, HCV entry",[1]; 0.3703704 uM of peptide,3658 luciferase units and 3430 luciferase units
same,"luciferase units, HCV entry",[1]; 1.111111 uM of peptide,4380 luciferase units and 2918 luciferase units
same,"luciferase units, HCV entry",[1]; 3.333333 uM of peptide,2239 luciferase units and 2490 luciferase units
same,"luciferase units, HCV entry",[1]; 10 uM of peptide,3393 luciferase units and 2865 luciferase units
same,"% control (HCVpp entry), alanine scanning","[1]; 10000 nM of peptide, two values per peptide",13 % control and 18 % control
same,"% control (HCVpp entry), alanine scanning","[1]; 30000 nM of peptide, two values per peptide",70 % control and 103 % control
same,% of control at ~30 uM,[1],20%
same,"luciferase units, AMLV entry",[2]; [8],55532 luciferase units and 43767 luciferase units and 32138 luciferase units and 44812 luciferase units and 41172 luciferase units and 40068 luciferase units
same,"luciferase units, AMLV entry",[2]; 0.04115226 uM of peptide,32390 luciferase units and 42604 luciferase units
same,"luciferase units, AMLV entry",[2]; 0.1234568 uM of peptide,41483 luciferase units and 44739 luciferase units
same,"luciferase units, AMLV entry",[2]; 0.3703704 uM of peptide,44659 luciferase units and 43073 luciferase units
same,"luciferase units, AMLV entry",[2]; 1.111111 uM of peptide,42996 luciferase units and 48628 luciferase units
same,"luciferase units, AMLV entry",[2]; 3.333333 uM of peptide,92146 luciferase units and 118949 luciferase units
same,"luciferase units, AMLV entry",[2]; 10 uM of peptide,129890 luciferase units and 172763 luciferase units
same,"luciferase units, AMLV entry",[2]; 30 uM of peptide,72040 luciferase units and 83257 luciferase units
S-C-S-P-I-D-A-F-A-Q-G-W-G-P-I-T [SEQ ID NO: 41],HCVpp % inh,[1],−11%
same,AMLVpp % inh,[2],25%
R-H-E-T-V-Q-D-C-N-C-S-I-Y-P-G-H [SEQ ID NO: 18],HCVpp % inh,[1],5%
same,AMLVpp % inh,[2],17%
I-M-H-T-P-G-C-V-P-C-V-R-E-N-N-S [SEQ ID NO: 7],HCVpp % inh,[1],3%
same,AMLVpp % inh,[2],−4%
F-A-Q-G-W-G-P-I-T-Y-N-E-S-H-S-S [SEQ ID NO: 42],HCVpp % inh,[1],49%
same,AMLVpp % inh,[2],15%
S-S-D-Q-R-P-Y-C-W-H-Y-A-P-R-P-C [SEQ ID NO: 44],HCVpp % inh,[1],14%
same,AMLVpp % inh,[2],15%
L-F-T-F-S-P-R-R-H-E-T-V-Q-D-C-N [SEQ ID NO: 17],HCVpp % inh,[1],9%
same,AMLVpp % inh,[2],16%
N-S-S-R-C-W-V-A-L-T-P-T-L-A-A-R [SEQ ID NO: 9],HCVpp % inh,[1],5%
same,AMLVpp % inh,[2],28%
